Calls of active or inactive are those of the source. No cut-off for these calls is given here.
Tests used:
Type in all cases: functional
Fusarium verticillioides [1] = test: Antifungal activity against Fusarium moniliforme at 75 ug/ml after 48 hrs by agar well diffusion method
Fusarium oxysporum [2] = test: Antifungal activity against Fusarium oxysporum at 100 ug/ml after 48 hrs by agar well diffusion method; conditions: read-out: DIZ
Aspergillus niger [3] = test: Antifungal activity against Aspergillus niger at 50 ug/ml after 48 hrs by agar well diffusion method
Staphylococcus aureus [4] = test: Antibacterial activity against methicillin resistant Staphylococcus aureus MRSA090 at 25 ug/ml after 24 hrs by agar well diffusion method; conditions: MRSA090, 24 h, read-out: DIZ
Staphylococcus aureus [5] = test: Antibacterial activity against methicillin resistant Staphylococcus aureus MRSA090 at 75 ug/ml after 24 hrs by agar well diffusion method; conditions: MRSA090, 24 h, read-out: DIZ
Fusarium verticillioides [6] = test: Antifungal activity against Fusarium moniliforme at 25 ug/ml after 48 hrs by agar well diffusion method
Bacillus subtilis [7] = test: Antibacterial activity against Bacillus subtilis at 100 ug/ml after 24 hrs by agar well diffusion method; conditions: read-out: DIZ
Staphylococcus aureus [8] = test: Antibacterial activity against Staphylococcus aureus at 75 ug/ml after 24 hrs by agar well diffusion method; conditions: read-out: DIZ
Staphylococcus aureus [9] = test: Antibacterial activity against methicillin resistant Staphylococcus aureus MRSA090 at 50 ug/ml after 24 hrs by agar well diffusion method; conditions: MRSA090, 24 h, read-out: DIZ
Staphylococcus aureus [10] = test: Antibacterial activity against Staphylococcus aureus at 25 ug/ml after 24 hrs by agar well diffusion method
Aspergillus niger [11] = test: Antifungal activity against Aspergillus niger at 25 ug/ml after 48 hrs by agar well diffusion method
Fusarium verticillioides [12] = test: Antifungal activity against Fusarium moniliforme at 50 ug/ml after 48 hrs by agar well diffusion method
Klebsiella pneumoniae [13] = test: Antibacterial activity against Klebsiella pneumoniae at 100 ug/ml after 24 hrs by agar well diffusion method; conditions: read-out: DIZ
Staphylococcus aureus [14] = test: Antibacterial activity against methicillin resistant Staphylococcus aureus MRSA090 at 100 ug/ml after 24 hrs by agar well diffusion method; conditions: MRSA090, 24 h, read-out: DIZ
Klebsiella pneumoniae [15] = test: Antibacterial activity against Klebsiella pneumoniae at 75 ug/ml after 24 hrs by agar well diffusion method; conditions: read-out: DIZ
Fusarium verticillioides [16] = test: Antifungal activity against Fusarium moniliforme at 100 ug/ml after 48 hrs by agar well diffusion method
Escherichia coli [17] = test: Antibacterial activity against Escherichia coli at 25 ug/ml after 24 hrs by agar well diffusion method; conditions: read-out: DIZ
Bacillus subtilis [18] = test: Antibacterial activity against Bacillus subtilis at 50 ug/ml after 24 hrs by agar well diffusion method; conditions: read-out: DIZ
Staphylococcus aureus [19] = test: Antibacterial activity against Staphylococcus aureus at 100 ug/ml after 24 hrs by agar well diffusion method; conditions: read-out: DIZ
Klebsiella pneumoniae [20] = test: Antibacterial activity against Klebsiella pneumoniae at 25 ug/ml after 24 hrs by agar well diffusion method; conditions: read-out: DIZ
Fusarium oxysporum [21] = test: Antifungal activity against Fusarium oxysporum at 25 ug/ml after 48 hrs by agar well diffusion method
Klebsiella pneumoniae [22] = test: Antibacterial activity against Klebsiella pneumoniae at 50 ug/ml after 24 hrs by agar well diffusion method; conditions: read-out: DIZ
Fusarium oxysporum [23] = test: Antifungal activity against Fusarium oxysporum at 75 ug/ml after 48 hrs by agar well diffusion method; conditions: read-out: DIZ
Staphylococcus aureus [24] = test: Antibacterial activity against Staphylococcus aureus at 50 ug/ml after 24 hrs by agar well diffusion method
Bacillus subtilis [25] = test: Antibacterial activity against Bacillus subtilis at 25 ug/ml after 24 hrs by agar well diffusion method; conditions: read-out: DIZ
Escherichia coli [26] = test: Antibacterial activity against Escherichia coli at 100 ug/ml after 24 hrs by agar well diffusion method; conditions: read-out: DIZ
Aspergillus niger [27] = test: Antifungal activity against Aspergillus niger at 100 ug/ml after 48 hrs by agar well diffusion method
Escherichia coli [28] = test: Antibacterial activity against Escherichia coli at 50 ug/ml after 24 hrs by agar well diffusion method; conditions: read-out: DIZ
Aspergillus niger [29] = test: Antifungal activity against Aspergillus niger at 75 ug/ml after 48 hrs by agar well diffusion method
Fusarium oxysporum [30] = test: Antifungal activity against Fusarium oxysporum at 50 ug/ml after 48 hrs by agar well diffusion method
Bacillus subtilis [31] = test: Antibacterial activity against Bacillus subtilis at 75 ug/ml after 24 hrs by agar well diffusion method; conditions: read-out: DIZ
Escherichia coli [32] = test: Antibacterial activity against Escherichia coli at 75 ug/ml after 24 hrs by agar well diffusion method; conditions: read-out: DIZ

Row | SMILES | zone of inhibition at 100 µg/mL (Fusarium oxysporum [2]) [mm] | zone of inhibition at 25 µg/mL (Staphylococcus aureus [4]) [mm] | zone of inhibition at 75 µg/mL (Staphylococcus aureus [5]) [mm] | zone of inhibition at 100 µg/mL (Bacillus subtilis [7]) [mm] | zone of inhibition at 75 µg/mL (Staphylococcus aureus [8]) [mm] | zone of inhibition at 50 µg/mL (Staphylococcus aureus [9]) [mm] | zone of inhibition at 100 µg/mL (Klebsiella pneumoniae [13]) [mm] | zone of inhibition at 100 µg/mL (Staphylococcus aureus [14]) [mm] | zone of inhibition at 75 µg/mL (Klebsiella pneumoniae [15]) [mm] | zone of inhibition at 25 µg/mL (Escherichia coli [17]) [mm] | zone of inhibition at 50 µg/mL (Bacillus subtilis [18]) [mm] | zone of inhibition at 100 µg/mL (Staphylococcus aureus [19]) [mm] | zone of inhibition at 25 µg/mL (Klebsiella pneumoniae [20]) [mm] | zone of inhibition at 50 µg/mL (Klebsiella pneumoniae [22]) [mm] | zone of inhibition at 75 µg/mL (Fusarium oxysporum [23]) [mm] | zone of inhibition at 25 µg/mL (Bacillus subtilis [25]) [mm] | zone of inhibition at 100 µg/mL (Escherichia coli [26]) [mm] | zone of inhibition at 50 µg/mL (Escherichia coli [28]) [mm] | zone of inhibition at 75 µg/mL (Bacillus subtilis [31]) [mm] | zone of inhibition at 75 µg/mL (Escherichia coli [32]) [mm] | further results
1 | Cc1cccc2nc(N/N=C/c3ccc(Br)cc3)sc12 | 29 | 9 | 15 | 13 | 5 | 11 | 17 | 19 | 14 | 3 | 7 | 9 | 6 | 11 | 23 | 4 | 14 | 7 | 11 | 11 | zone of inhibition at 75 µg/mL (Fusarium verticillioides [1]; read-out: DIZ): 24 mm; zone of inhibition at 50 µg/mL (Aspergillus niger [3]; read-out: DIZ): 18 mm; zone of inhibition at 25 µg/mL (Fusarium verticillioides [6]; read-out: DIZ): 12 mm; diameter of the inhibition zone (DIZ) (Staphylococcus aureus [10]): inactive; zone of inhibition at 25 µg/mL (Aspergillus niger [11]; read-out: DIZ): 14 mm; zone of inhibition at 50 µg/mL (Fusarium verticillioides [12]; read-out: DIZ): 17 mm; zone of inhibition at 100 µg/mL (Fusarium verticillioides [16]; read-out: DIZ): 28 mm; zone of inhibition at 25 µg/mL (Fusarium oxysporum [21]; read-out: DIZ): 13 mm; diameter of the inhibition zone (DIZ) (Staphylococcus aureus [24]): inactive; zone of inhibition at 100 µg/mL (Aspergillus niger [27]; read-out: DIZ): 28 mm; zone of inhibition at 75 µg/mL (Aspergillus niger [29]; read-out: DIZ): 23 mm; zone of inhibition at 50 µg/mL (Fusarium oxysporum [30]; read-out: DIZ): 18 mm
2 | COc1cc(/C=N/Nc2nc3cccc(C)c3s2)ccc1O | 12 | 12 | 19 | 28 | 22 | 16 | 16 | 24 | 14 | 10 | 19 | 26 | 4 | 10 | 8 | 15 | 27 | 15 | 23 | 21 | diameter of the inhibition zone (DIZ) (Fusarium verticillioides [1]): inactive; diameter of the inhibition zone (DIZ) (Aspergillus niger [3]): inactive; diameter of the inhibition zone (DIZ) (Fusarium verticillioides [6]): inactive; zone of inhibition at 25 µg/mL (Staphylococcus aureus [10]; read-out: DIZ): 13 mm; diameter of the inhibition zone (DIZ) (Aspergillus niger [11]): inactive; diameter of the inhibition zone (DIZ) (Fusarium verticillioides [12]): inactive; diameter of the inhibition zone (DIZ) (Fusarium verticillioides [16]): inactive; diameter of the inhibition zone (DIZ) (Fusarium oxysporum [21]): inactive; zone of inhibition at 50 µg/mL (Staphylococcus aureus [24]; read-out: DIZ): 17 mm; diameter of the inhibition zone (DIZ) (Aspergillus niger [27]): inactive; diameter of the inhibition zone (DIZ) (Aspergillus niger [29]): inactive; diameter of the inhibition zone (DIZ) (Fusarium oxysporum [30]): inactive

Source: ChEMBL document CHEMBL4020788, “Synthesis, SAR and molecular docking studies of benzo[d]thiazole-hydrazones as potential antibacterial and antifungal agents” (2017)
